Results as given in ChEMBL document CHEMBL1157047, “Designing inhibitors against fructose 1,6-bisphosphatase: exploring natural products for novel inhibitor scaffolds” (Eur J Med Chem, 2010).

Key:
[1] = target: T1, Fructose-1,6-bisphosphatase 1 (Homo sapiens, UniProt P09467); assay: Inhibition of human liver fructose-1,6-bisphosphatase expressed in Escherichia coli BL21 (DE3) assessed as reduction of NADP+ to NADPH by phosphoglucose isomerase/glucose-6-phosphate dehydrogenase coupled assay
T1 sequence (P09467 whole entry): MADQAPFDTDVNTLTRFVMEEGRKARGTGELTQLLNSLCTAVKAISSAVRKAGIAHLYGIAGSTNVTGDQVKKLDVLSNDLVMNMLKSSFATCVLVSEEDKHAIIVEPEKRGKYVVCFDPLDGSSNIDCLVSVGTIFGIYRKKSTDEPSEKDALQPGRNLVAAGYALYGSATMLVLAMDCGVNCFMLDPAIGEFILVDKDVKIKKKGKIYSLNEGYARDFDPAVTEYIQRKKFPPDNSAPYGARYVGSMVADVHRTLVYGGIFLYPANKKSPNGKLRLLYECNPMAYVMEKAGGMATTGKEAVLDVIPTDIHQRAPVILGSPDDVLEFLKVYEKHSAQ

[2] = target: T2, Fructose-1,6-bisphosphatase 1 (Sus scrofa, UniProt P00636); assay: Inhibition of pig kidney fructose-1,6-bisphosphatase expressed in Escherichia coli BL21 (DE3) assessed as reduction of NADP+ to NADPH by phosphoglucose isomerase/glucose-6-phosphate dehydrogenase coupled assay
T2 sequence (P00636 whole entry): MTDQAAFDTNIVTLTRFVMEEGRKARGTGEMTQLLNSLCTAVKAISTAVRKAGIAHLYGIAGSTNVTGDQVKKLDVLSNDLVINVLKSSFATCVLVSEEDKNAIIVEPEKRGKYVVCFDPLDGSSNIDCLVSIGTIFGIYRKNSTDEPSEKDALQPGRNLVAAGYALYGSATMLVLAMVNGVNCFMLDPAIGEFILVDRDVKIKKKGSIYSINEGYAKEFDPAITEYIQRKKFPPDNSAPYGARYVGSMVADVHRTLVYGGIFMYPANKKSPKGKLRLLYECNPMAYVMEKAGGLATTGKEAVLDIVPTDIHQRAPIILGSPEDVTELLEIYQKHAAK

IC50 [1] | IC50 [2] | Structure (SMILES) | IC50 ([1]; read-out: IC50) [µM]
Not Active | Not Active | Oc1cc(O)c2c(c1)oc1cc(O)cc(O)c12 | 
 |  | CC(=O)C1=C(O)C=C2Oc3c(C(C)=O)c(O)c(C)c(O)c3[C@@]2(C)C1=O [(+)-USNIC ACID] | 371
 |  | Nc1ncnc2c1ncn2[C@@H]1O[C@H](COP(=O)(O)O)[C@@H](O)[C@H]1O [ADENOSINE PHOSPHATE] | 9.8
